Data from US20220227772A1, “DEUTERATED TRIAZOLOPYRIMIDINES” (THE TRUSTEES OF THE UNIVERSITY OF PENNSYLVANIA, priority 2019, published 2022).
Where two headings read alike, the source gives them in different places.

How the values were obtained:
[1] = Plasma and brain compound levels in wild-type mice; format: in vivo, mouse; details: for Kp at 1 h: brain/plasma, read-out: B/P
Experimental: Mouse brains were homogenized in 10 mM ammonium acetate, pH 5.7 (1:2; w/v) using a handheld sonic homogenizer. Mouse plasma was obtained from blood that was collected into a 1.5 mL tube containing 0.5M EDTA solution and which was centrifuged for 10 minutes at 4500 g at […]. Aliquots (50 μL) of brain homogenates (50% w/v in 100 mM NH4OAc pH 5.75) or plasma were mixed with 0.2 ml of acetonitrile, centrifuged at 15,000 g, and the resulting supernatant was used for subsequent LC-MS/MS analysis. Compounds were detected using multiple reaction monitoring (MRM) of their specific collision-induced ion transitions. Samples were separated on an Agilent Zorbax C8 column (3.5 μm, 2.1×50 mm) at 35° C., with mobile phase A of 0.1% (v/v) formic acid, and B of acetonitrile with 0.1% (v/v) formic acid and a gradient of increasing B at 0.4 mL/min. To account for possible matrix effects on analytes, standard curves were generated for each compound from brain homogenate and plasma samples. The standard curve samples were extracted and analyzed in an identical fashion as the corresponding tissue-derived samples, and peak areas were plotted against concentration and a linear regression curve was used to obtain estimated concentrations of the tissue-derived samples using the peak areas. […]

[2] = tested on: total α-tubulin in QBI293 cells; test: QBI293 cell-based MT assay, alpha-tubulin ELISA; details: 4 h incubation
Experimental: (§1) The HEK293 cell subclone, QBI293, was maintained in DMEM supplemented with 10% fetal calf or bovine serum, 1% penicillin/streptomycin antibiotic solution and 1% glutamine at 37° C. in 5% CO2. Cells were plated into 6-well plates at a density of 800,000 cells/well. […] Test compounds were added at multiple concentrations to the test wells and incubated for 4 h. Subsequently, the media was removed and the cells were washed with 1 mL of ice-cold phosphate-buffered saline (PBS). After removal of PBS, 0.2 mL of ice-cold RIPA (0.5% sodium deoxycholate, 0.1% SDS, 1% NP-40, 5 mM EDTA, pH 8.0) containing protease inhibitor mix (1 μg/mL each of pepstatin, leupeptin, TLCK, TPCK and trypsin inhibitor), 1 mM PMSF and 1 μM trichostatin A was added to the wells. The wells were then scraped using a cell scraper and pipetted into 1.5 mL microfuge tubes. The tubes were sonicated with a handheld sonicator at 20× on a power setting of 2, followed by centrifugation for 30 min at 15,000 rpm at […]. Supernatants were removed and quantified for protein concentration and the acetyl-tubulin levels were determined using an ELISA as described.
(§2) The enzyme-linked immunosorbent assay (ELISA) was performed as previously described in Brunden, 2011, Pharmacological Research, 63:341, which is incorporated by reference herein. Briefly, 384-well plates were coated with 12G10 α-tubulin antibody (10 μg/mL; Covance, Princeton, N.J., USA) in 30 μL of cold 0.1 M bicarbonate buffer. 12G10 anti-α-tubulin antibody was originally deposited to the Developmental Studies Hybridoma Bank by Frankel and Nelsen. After overnight incubation at 4° C., the plates were blocked in Block Ace solution (Bio-Rad, Hercules, Calif., USA) for a minimum of 24 hours at 4° C. QBI-293 cell homogenates were diluted in C buffer (0.02 M sodium phosphate, 2 mM EDTA, 0.4 M NaCl, 1% BSA, 0.005% Thimerosal, pH 7.0). Typically, […] dilutions from 266 ng/μL to 22.2 ng/μL for QBI cells were performed and 30 μL of sample were added to wells in duplicate. Plates were sealed, centrifuged, and incubated overnight at 4° C. Following incubation with antigen, wells were aspirated and washed with PBS containing 0.05% Tween-20 and 0.005% thimerosal (PBS-Tween buffer). A horseradish peroxidase (HRP)-acetyl-tubulin reporter antibody was prepared by conjugating acetyl-tubulin primary antibody (Sigma Aldrich; clone 6-11B-1) to HRP using a commercially-available peroxidase labeling kit (Roche Applied Science, Indianapolis, Ind., USA). The HRP-acetyl-tubulin reporter antibody (1:1,000 v/v; Sigma Aldrich) or pre-conjugated HRP-alpha-tubulin (1:5,000 v/v; ProteinTech Group, Chicago, Ill., USA) diluted in C buffer were added to appropriate wells (30 μL per well). The plates were sealed and incubated at room temperature for 4 hours on a platform rocker, followed by washing with PBS-Tween buffer. Peroxidase substrate solution (30 μL; KPL, Gaithersburg, Md., USA) was added to each well and the reaction was quenched after 10 min with 10% phosphoric acid (30 μL). Plates were read on a SpectraMax M5 plate reader at an absorbance of 450 nm. The amount of acetyl- and alpha-tubulin protein in each sample was extrapolated using standard curves generated from serial dilutions of known protein standard (acetyl- or alpha-tubulin) concentrations.
(§3) The compounds were evaluated in a QBI293 cell-based MT assay as described in Kovalevich et al., J. Pharmacol. Exp. Ther., 2016, 357, 432-50, which is incorporated by reference herein. In summary, acetylated α-tubulin and total α-tubulin levels were determined by ELISA in cell lysates after 4 h of incubation with test compound at 1 and 10 μM (Table 1).

[3] = tested on: acetylated α-tubulin in QBI293 cells; test: QBI293 cell-based microtubule stabilization assay, acetyl-tubulin ELISA; details: 4 h incubation
Experimental: as §1, §2, §3

[4] = scaled to 5 mg/kg, read-out: Brain conc.
[5] = mouse, brain, 1 h @ 5.0 mg/kg, read-out: Brain conc.
[6] = mouse, plasma, 1 h @ 5.0 mg/kg, read-out: Plasma conc.
[7] = female, mouse, brain, intraperitoneal, 1 h @ 2.5 mg/kg, read-out: Brain conc.
[8] = female, mouse, intraperitoneal, 1 h @ 2.5 mg/kg
[9] = female, mouse, plasma, intraperitoneal, 1 h @ 2.5 mg/kg, read-out: Plasma conc.

| Structure (SMILES) | αTub (α-tubulin relative to vehicle-treated cells) ([2]; 1 μM) | αTub (α-tubulin relative to vehicle-treated cells) ([2]; 10 μM) | AcTub (acetylated-tubulin relative to vehicle-treated cells) ([3]; 1 μM) | AcTub (acetylated-tubulin relative to vehicle-treated cells) ([3]; 10 μM) | also measured |
| --- | --- | --- | --- | --- | --- |
| [2H]C(C)(Nc1c(-c2c(F)cc(F)cc2F)c(Cl)nc2ncnn12)C(C)C (single isomer, unassigned) [5-chloro-N-(3-methylbutan-2-yl-2-d)-6-(2,4,6-trifluorophenyl] [5-chloro-N-(3-methylbutan-2-yl-2-d)-6-(2,4,6-trifluorophenyl)-[1,2,4]triazolo[1,5-a]pyrimidin-7-amine] | – | – | – | – | Plasma conc. ([1]; scaled to 5 mg/kg): 398 nM; concentration at 1 h [1, 4]: 1102 nM; αTub (α-tubulin relative to vehicle-treated cells) ([2]; 1 μM, enantiomer 1): 1.16 ± 0.04; αTub (α-tubulin relative to vehicle-treated cells) ([2]; 1 μM, enantiomer 2): 0.93 ± 0.05; αTub (α-tubulin relative to vehicle-treated cells) ([2]; 10 μM, enantiomer 1): 1.20 ± 0.01; αTub (α-tubulin relative to vehicle-treated cells) ([2]; 10 μM, enantiomer 2): 0.93 ± 0.02 |
| CC(C)[C@H](C)Nc1c(-c2c(F)cc(F)cc2F)c(Cl)nc2ncnn12 [(S)-5-chloro-N-(3-methylbutan-2-yl)-6-(2,4,6-trifluorophenyl)-[1,2,4]triazolo[1,5-a]pyrimidin-7-amine] | 0.94 ± 0.04 | 0.88 ± 0.02 | 1.22 ± 0.10 | 2.46 ± 0.18 | – |
| [2H][C@@](C)(Nc1c(-c2c(F)cc(F)cc2F)c(Cl)nc2ncnn12)C(C)(C)C (single isomer, unassigned) | 1.07 ± 0.05 | 0.85 ± 0.05 | 1.10 ± 0.07 | 2.92 ± 0.04 | – |
| CC(C)[C@@H](C)Nc1c(-c2c(F)cc(F)cc2F)c(Cl)nc2ncnn12 [(R)-5-chloro-N-(3-methylbutan-2-yl)-6-(2,4,6-trifluorophenyl)-[1,2,4]triazolo[1,5-a]pyrimidin-7-amine] | 1.10 ± 0.20 | 0.91 ± 0.17 | 2.08 ± 0.09 | 2.54 ± 0.10 | concentration at 1 h [1, 5]: 812 ± 61 nM; Kp at 1 h ([1]; mouse, 1 h @ 5.0 mg/kg): 2.5; concentration at 1 h [1, 6]: 320 ± 93 nM |
| [2H]C(C)(Nc1c(-c2c(F)cc(F)cc2F)c(Cl)nc2ncnn12)C(C)C (single isomer, unassigned) [5-chloro-N-(3-methylbutan-2-yl-2-d)-6-(2,4,6-trifluorophenyl)-[1,2,4]triazolo[1,5-a]pyrimidin-7-amine] | – | – | – | – | concentration at 1 h [1, 7]: 551 ± 56 nM; Kp at 1 h [1, 8]: 2.8; concentration at 1 h [1, 9]: 199 ± 46 nM |
| C[C@@H](Nc1c(-c2c(F)cc(F)cc2F)c(Cl)nc2ncnn12)C(C)(C)C [(R)-5-chloro-N-(3,3-dimethylbutan-2-yl)-6-(2,4,6-trifluorophenyl)-[1,2,4]triazolo[1,5-a]pyrimidin-7-amine] | 1.00 ± 0.06 | 1.03 ± 0.12 | 5.11 ± 0.47 | 7.19 ± 0.31 | concentration at 1 h [1, 5]: 153 ± 33 nM; Kp at 1 h ([1]; mouse, 1 h @ 5.0 mg/kg): 2.2; concentration at 1 h [1, 6]: 69 ± 11 nM |
| [2H][C@](C)(Nc1c(-c2c(F)cc(F)cc2F)c(Cl)nc2ncnn12)C(C)(C)C (single isomer, unassigned) | 1.00 ± 0.03 | 1.05 ± 0.09 | 5.71 ± 0.13 | 7.69 ± 0.49 | concentration at 1 h [1, 7]: 296 ± 48 nM; Kp at 1 h [1, 8]: 2.9; concentration at 1 h [1, 9]: 104 ± 14 nM; Plasma conc. ([1]; scaled to 5 mg/kg): 208 nM; concentration at 1 h [1, 4]: 592 nM |
| C[C@H](Nc1c(-c2c(F)cc(F)cc2F)c(Cl)nc2ncnn12)C(C)(C)C [(S)-5-chloro-N-(3,3-dimethylbutan-2-yl)-6-(2,4,6-trifluorophenyl)-[1,2,4]triazolo[1,5-a]pyrimidin-7-amine] | 0.80 ± 0.06 | 0.83 ± 0.06 | 1.03 ± 0.01 | 3.05 ± 0.18 | – |
